Measurements from patent publication US20210267996A1, “Compounds for inhibition of inflammation” (Children`s Medical Center Corporation, priority 2018, published 2021).
“Also recorded” adds a separate entry of the source. Structures can show the parent of a compound that is named as a salt. Where two headings read alike, the source gives them in different places.

Key:
HT-29 cells = assay: Necroptosis induced by TNFα, SMAC mimetic and z-VAD-fmk; format: cell-based; conditions: SMAC mimetic
Description: Inhibition was shown by cell survival, assessed by CellTiter-Glo ATP luminescence, and membrane permeabilization, assessed by uptake of the membrane-impermeable dye SYTOX Green.

Human GSDMD = molecular target: T1, Human GSDMD (Homo sapiens, UniProt P57764); assay: Liposome leakage assay (Tb3+/DPA), GSDMD plus caspase-11; format: biochemical
T1 construct: His6-MBP (N, cleaved yes); made in house; host or cells: E. coli BL21 (DE3) for GSDMD; Sf9 for caspase-11
T1 sequence (P57764 1-484): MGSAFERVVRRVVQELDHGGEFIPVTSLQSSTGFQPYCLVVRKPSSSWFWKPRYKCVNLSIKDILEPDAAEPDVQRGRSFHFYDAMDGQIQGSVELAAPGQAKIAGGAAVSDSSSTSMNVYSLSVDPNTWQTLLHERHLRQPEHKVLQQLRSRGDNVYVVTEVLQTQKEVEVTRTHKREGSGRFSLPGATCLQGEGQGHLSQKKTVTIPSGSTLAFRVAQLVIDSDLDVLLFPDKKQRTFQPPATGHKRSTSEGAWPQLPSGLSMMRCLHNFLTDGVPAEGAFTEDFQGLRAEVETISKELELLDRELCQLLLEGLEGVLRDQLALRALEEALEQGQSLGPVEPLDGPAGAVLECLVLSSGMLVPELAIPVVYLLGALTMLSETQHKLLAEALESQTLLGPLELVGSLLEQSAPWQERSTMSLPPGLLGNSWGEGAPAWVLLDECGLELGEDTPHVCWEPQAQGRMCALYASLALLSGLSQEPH
Description: The lipid mixture was suspended in 1 mL Buffer A (20 mM HEPES, 150 mM NaCl, 50 mM sodium citrate, and 15 mM TbCl3) for 3 min. The suspension was pushed through 100 nm Whatman® Nuclepore™ Track-Etched Membrane 30 times to obtain homogeneous liposomes. The filtered suspension was purified by size exclusion column (Superose 6, 10/300 GL) in Buffer B (20 mM HEPES, 150 mM NaCl) to remove TbCl3 outside liposomes. […] The liposomes are diluted to 50 μM with Buffer C (20 mM HEPES, 150 mM NaCl and 50 μM DPA) for use in high-throughput screening.

mouse iBMDMs [1] = assay: Processing of caspase-1, GSDMD and IL-1β in iBMDMs (immunoblot); format: cell-based; conditions: 1 hr time point
Description: (§1) FIG. 97 contains a bar graph showing results of an experiment where LPS-primed THP-1 cells, after medium removal, were incubated with probe FAM-YVAD-FMK in FLICA assay buffer for another 0.5 hr before fluorescence reading. iBMDMs were pretreated with disulfiram, Bay 11-7082, necrosulfonamide (NSA) or z-VAD-fmk for 1 hr before treated or not with Nigericin for 0.5 hr. Whole cell lysates and culture supernatants were immunoblotted with the indicated antibodies.
as §1, with “FIG. 98” for “FIG. 97”, “for 1” for “for 0.5”
Canonical inflammasome assembly activates caspase-1, which cleaves pro-IL-1β and GSDMD, and the latter is needed to release processed IL-1β and to induce pyroptosis. To assess which steps in NLRP3-mediated inflammation were inhibited post ASC speck formation, LPS-primed THP-1 cells were treated with vehicle, 30 μM z-VAD-fmk or disulfiram 1 hour before adding nigericin, and cleavage and activation of caspase-1, GSDMD, and pro-IL-1β were analysed by immunoblot of whole cell lysates 30 min later and 1 hr later. Secretion of processed IL-1β was also assessed by immunoblot of culture supernatants. […] The 1 hr time point is relevant as the cell death and IL-1β release measurements used cells stimulated with nigericin for 1 and 2 hrs, respectively.

mouse iBMDMs [2] = assay: Non-canonical inflammasome pyroptosis, iBMDMs with LPS electroporation; format: cell-based
Description: Cell lines and treatments: THP-1 cells and HEK293T cells (obtained from ATCC) were grown in RPMI with 10% heat-inactivated fetal bovine serum, supplemented with 100 U/ml penicillin G, 100 μg/ml streptomycin sulfate, 6 mM HEPES, 1.6 mM L-glutamine, and 50 μM 2ME. C57BL/6 mouse iBMDM cells were kindly provided by J. Kagan (Boston Children's Hospital) and cultured in DMEM with the same supplements. Cells were verified to be free of mycoplasma contamination. Transient transfection of HEK293T cells was performed using Lipofectamine 2000 (Invitrogen) according to the manufacturer's instructions. iBMDM cells were transfected by nucleofection using the Amaxa Nucleofector kit (VPA-1009). […] To examine IκBα. phosphorylation and degradation as well as IL-1β induction, PMA-differentiated THP-1 cells were stimulated with LPS (1 μg/ml) for 0.5, 1 and 4 hrs, respectively. For noncanoical inflammasome activation, 1 million iBMDM cells were electroporated with 1 μg ultra LPS.
Cytotoxicity and cell viability assays: cell death and cell viability were determined by the lactate dehydrogenase release assay using the CytoTox 96 Non-Radioactive Cytotoxicity Assay kit (Promega) and by measuring ATP levels using the CellTiter-Glo Luminescent Cell Viability Assay (Promega), respectively, according to the manufacturer's instructions. Luminescence and absorbance were measured on a BioTek Synergy 2 plate reader.
In FIGS. 4, 6, and 8, PMA-differentiated LPS-primed human THP-1 were pre-treated with indicated concentrations of each compound for 1 h before adding nigericin or medium. The number of surviving cells was determined by CellTiter-Glo assay (FIGS. 4 and 6) and IL-1β in culture supernatants was assessed by ELISA (FIG. 8) 2 hrs later. In FIGS. 5, 7, and 9, mouse iBMDMs were pre-treated with each test compound for 1 hr before electroporation with PBS or LPS. The number of surviving cells was determined by CellTiter-Glo assay (FIGS. 5 and 7) and IL-1β in culture supernatants was assessed by ELISA (FIG. 9) 2.5 hrs later. In FIGS. 8 and 9, 40 μM concentration of test compounds were added.

THP-1 cells = assay: Canonical inflammasome pyroptosis, LPS-primed THP-1 cells plus nigericin; format: cell-based, human; conditions: for inhibition of canonical inflammasome pyroptosis: THP-1, nigericin
Description: Cell viability assay. […] Primed THP-1 cells were pretreated with each test compound for 1 hr before addition of 20 μM nigericin or medium as control. The number of surviving cells was determined by CellTiter-Glo assay 1.5 hrs later. The final percent cell viability was calculated using the formula [(luminescencetest compound−luminescencencenegative control)/(luminescencencepositive control−luminescencenegative control)]×100, where wells with only LPS were used as positive controls and wells treated with LPS and nigericin were used as negative controls.
In FIGS. 4, 6, and 8, PMA-differentiated LPS-primed human THP-1 were pre-treated with indicated concentrations of each compound for 1 h before adding nigericin or medium. The number of surviving cells was determined by CellTiter-Glo assay (FIGS. 4 and 6) and IL-1β in culture supernatants was assessed by ELISA (FIG. 8) 2 hrs later. […] In FIGS. 8 and 9, 40 μM concentration of test compounds were added. […] Graphs show the mean±s.d. and data shown are representative of three independent experiments. **P<0.01.

[3] = Table 2, leakage assay, read-out: IC50

CN1C(=O)C(Cc2c[nH]c3ccccc23)NC1=S (stereo not shown) [necrostatin-1]
necroptosis (HT-29 cells): blocked

COC(=O)/C=C/C(=O)OC [DMF, dimethyl fumarate]
activity against GSDMD (Human GSDMD; Cys-reactive comparison compounds): lack of activity

COc1nccnc1NS(=O)(=O)c1ccc(NC(=O)/C=C/c2ccc([N+](=O)[O-])s2)cc1 [necrosulfonamide]
necroptosis (HT-29 cells): blocked | times less active than disulfiram at inhibiting liposome leakage (Human GSDMD; GSDMD plus caspase-11): about 30 fold | IC50 (Human GSDMD; WT GSDMD, caspase-11-triggered, read-out: IC50 of liposome leakage): 9500 ± 430 nM | processing of caspase-1, GSDMD and IL-1β (mouse iBMDMs [1]): still inhibited processing

Cc1c(-c2cnccn2)ssc1=S [C-24]
inhibition of non-canonical inflammasome pyroptosis (mouse iBMDMs [2]): Only C-23 blocked pyroptosis | inhibition of canonical inflammasome pyroptosis (THP-1 cells): Only C-23 blocked pyroptosis

CCN(CC)C(=S)S [DTC, diethyldithiocarbamate]
effect of copper gluconate (Cu2+) on inhibition of liposome leakage (Human GSDMD; with Cu2+): only weakly increased | activity in cells in the presence of Cu2+ (THP-1 cells; with Cu2+): almost as active as C-23; also recorded: almost as active as disulfiram | effect of Cu2+ on protection of LPS-primed THP-1 cells from pyroptosis (THP-1 cells; with Cu2+): strongly promoted

S=C(SSC(=S)N1CCOCC1)N1CCOCC1 [C-23A7, di(4-morpholinyl)dithioperoxyanhydride]
IC50 (Human GSDMD; [3]): 250 ± 10 nM

CCCCN(CCCC)C(=S)SSC(=S)N(CCCC)CCCC [C-23A3, tetrabutylthiuram disulfide]
IC50 (Human GSDMD; [3]): 460 ± 80 nM

S=C(SSC(=S)N(Cc1ccccc1)Cc1ccccc1)N(Cc1ccccc1)Cc1ccccc1 [C-23A12, Tetrabenzylthiuram disulfide]
IC50 (Human GSDMD; [3]): 2930 ± 1070 nM

S=C(SSC(=S)N(c1ccccc1)c1ccccc1)N(c1ccccc1)c1ccccc1 [C-23A5, Tetraphenylthiuram disulfide]
IC50 (Human GSDMD; [3]): 3740 ± 1060 nM

Cc1ccc(N(C)C(=S)SSC(=S)N(C)c2ccc(C)cc2)cc1 [C-23A6, N,N′-Dimethyl-N,N′-(4,4′-dimethyldiphenyl)thiuram disulfide]
IC50 (Human GSDMD; [3]): 350 ± 30 nM

CC(C)N(C(=S)SSC(=S)N(C(C)C)C(C)C)C(C)C [C-23A2, Tetraisopropylthiuram disulfide]
IC50 (Human GSDMD; [3]): 370 ± 10 nM

CN(C(=S)SSC(=S)N(C)c1ccncc1)c1ccncc1 [C-23A8, N,N′-Dimethyl-N,N′-di(4-pyridinyl)thiuram disulfide]
IC50 (Human GSDMD; [3]): 1250 ± 10 nM

CN1CCN(C(=S)SSC(=S)N2CCN(C)CC2)CC1 [C-23A4, 4-Methylpiperazine-1-carbothioic dithioperoxyanhydride]
IC50 (Human GSDMD; [3]): 260 ± 10 nM

CN(C)C(=S)SSC(=S)N(C)C [C-23A1, tetramethylthiuram disulfide]
IC50 (Human GSDMD; [3]): 220 ± 10 nM

COc1ccc(-c2cc(=S)ss2)cc1 [C-22]
inhibition of non-canonical inflammasome pyroptosis (mouse iBMDMs [2]): Only C-23 blocked pyroptosis | inhibition of canonical inflammasome pyroptosis (THP-1 cells): Only C-23 blocked pyroptosis

S=C(SSC(=S)N1CCCC1)N1CCCC1 [C-23A10, pyrrolidine-1-carbothioic dithioperoxyanhydride]
IC50 (Human GSDMD; [3]): 260 ± 20 nM

S=C(SSC(=S)N1CCCCC1)N1CCCCC1 [C-23A9, dicyclopentamethylenethiuram disulfide]
IC50 (Human GSDMD; [3]): 260 ± 3 nM

CN(C(=S)SSC(=S)N(C)c1ccccc1)c1ccccc1 [C-23A11, dimethyldiphenylthiuram disulfide]
IC50 (Human GSDMD; [3]): 370 ± 10 nM
